Test results published in ChEMBL document CHEMBL5649169 (ChemMedChem, 2018).

Experiments:
[1] = target: Protein transport protein Sec23A (Homo sapiens) (UniProt Q15436); note: assay method not described here
[2] = target: Serine/threonine-protein kinase A-Raf (Homo sapiens) (UniProt P10398); note: assay method not described here
[3] = target: TBC1 domain family member 15 (Homo sapiens) (UniProt Q8TC07); note: assay method not described here
[4] = target: Calcium/calmodulin-dependent protein kinase type II subunit delta (Homo sapiens) (UniProt Q13557); note: assay method not described here
[5] = target: Double-strand break repair protein MRE11 (Homo sapiens) (UniProt P49959); note: assay method not described here
[6] = target: Protein kinase C beta type (Homo sapiens) (UniProt P05771); note: assay method not described here
[7] = target: Zinc finger CCCH domain-containing protein 11A (Homo sapiens) (UniProt O75152); note: assay method not described here
[8] = target: E3 ubiquitin/ISG15 ligase TRIM25 (Homo sapiens) (UniProt Q14258); note: assay method not described here
[9] = target: Sodium/potassium-transporting ATPase subunit alpha-1 (Homo sapiens) (UniProt P05023); note: assay method not described here
[10] = target: Large ribosomal subunit protein uL14 (Homo sapiens) (UniProt P62829); note: assay method not described here
[11] = target: Conserved oligomeric Golgi complex subunit 4 (Homo sapiens) (UniProt Q9H9E3); note: assay method not described here
[12] = target: Serine palmitoyltransferase 1 (Homo sapiens) (UniProt O15269); note: assay method not described here
[13] = target: Tyrosine-protein kinase ABL1 (Homo sapiens, UniProt P00519); conditions: read-out: Kd(app)
[14] = target: Small ribosomal subunit protein eS12 (Homo sapiens) (UniProt P25398); note: assay method not described here
[15] = target: Structural maintenance of chromosomes protein 4 (Homo sapiens) (UniProt Q9NTJ3); note: assay method not described here
[16] = target: Transcriptional regulator protein Pur-beta (Homo sapiens) (UniProt Q96QR8); note: assay method not described here
[17] = target: Ephrin type-B receptor 6 (Homo sapiens) (UniProt O15197); note: assay method not described here
[18] = target: cAMP-dependent protein kinase catalytic subunit beta (Homo sapiens) (UniProt P22694); note: assay method not described here
[19] = target: Reticulon-4 (Homo sapiens) (UniProt Q9NQC3); note: assay method not described here
[20] = target: Mitogen-activated protein kinase 10 (Homo sapiens) (UniProt P53779); note: assay method not described here
[21] = target: Protein THEM6 (Homo sapiens) (UniProt Q8WUY1); note: assay method not described here
[22] = target: Receptor-type tyrosine-protein kinase FLT3 (Homo sapiens) (UniProt P36888); note: assay method not described here
[23] = target: Large ribosomal subunit protein uL23 (Homo sapiens) (UniProt P62750); note: assay method not described here
[24] = target: Succinate dehydrogenase [ubiquinone] flavoprotein subunit, mitochondrial (Homo sapiens) (UniProt P31040); note: assay method not described here
[25] = target: Glutaryl-CoA dehydrogenase, mitochondrial (Homo sapiens) (UniProt Q92947); note: assay method not described here
[26] = target: Polyadenylate-binding protein 1 (Homo sapiens) (UniProt P11940); note: assay method not described here
[27] = target: NADH-ubiquinone oxidoreductase 75 kDa subunit, mitochondrial (Homo sapiens) (UniProt P28331); note: assay method not described here
[28] = target: THO complex subunit 4 (Homo sapiens) (UniProt Q86V81); note: assay method not described here
[29] = target: Dolichyl-diphosphooligosaccharide--protein glycosyltransferase subunit 2 (Homo sapiens) (UniProt P04844); note: assay method not described here
[30] = target: Protein MON2 homolog (Homo sapiens) (UniProt Q7Z3U7); note: assay method not described here
[31] = target: Sarcoplasmic/endoplasmic reticulum calcium ATPase 2 (Homo sapiens) (UniProt P16615); note: assay method not described here
[32] = target: Casein kinase II subunit alpha' (Homo sapiens) (UniProt P19784); note: assay method not described here
[33] = target: Splicing factor U2AF 35 kDa subunit (Homo sapiens) (UniProt Q01081); note: assay method not described here
[34] = target: Serine/threonine-protein phosphatase 6 regulatory subunit 1 (Homo sapiens) (UniProt Q9UPN7); note: assay method not described here
[35] = target: Serine/threonine-protein kinase 3 (Homo sapiens) (UniProt Q13188); note: assay method not described here
[36] = target: 5'-AMP-activated protein kinase subunit gamma-1 (Homo sapiens) (UniProt P54619); note: assay method not described here
[37] = target: Ras GTPase-activating-like protein IQGAP1 (Homo sapiens) (UniProt P46940); note: assay method not described here
[38] = target: Ribosomal protein S6 kinase alpha-3 (Homo sapiens) (UniProt P51812); note: assay method not described here
[39] = target: GPI-anchor transamidase (Homo sapiens) (UniProt Q92643); note: assay method not described here
[40] = target: Protein kinase C theta type (Homo sapiens) (UniProt Q04759); note: assay method not described here
[41] = target: 26S proteasome non-ATPase regulatory subunit 2 (Homo sapiens) (UniProt Q13200); note: assay method not described here
[42] = target: Inorganic pyrophosphatase (Homo sapiens) (UniProt Q15181); note: assay method not described here
[43] = target: Interleukin-1 receptor-associated kinase 4 (Homo sapiens) (UniProt Q9NWZ3); note: assay method not described here
[44] = target: Serine/threonine-protein kinase mTOR (Homo sapiens) (UniProt P42345); note: assay method not described here
Throughout, for ED50: assay method not described here.

Sequence of Ribosomal protein S6 kinase alpha-3 (Homo sapiens) (P51812 whole entry): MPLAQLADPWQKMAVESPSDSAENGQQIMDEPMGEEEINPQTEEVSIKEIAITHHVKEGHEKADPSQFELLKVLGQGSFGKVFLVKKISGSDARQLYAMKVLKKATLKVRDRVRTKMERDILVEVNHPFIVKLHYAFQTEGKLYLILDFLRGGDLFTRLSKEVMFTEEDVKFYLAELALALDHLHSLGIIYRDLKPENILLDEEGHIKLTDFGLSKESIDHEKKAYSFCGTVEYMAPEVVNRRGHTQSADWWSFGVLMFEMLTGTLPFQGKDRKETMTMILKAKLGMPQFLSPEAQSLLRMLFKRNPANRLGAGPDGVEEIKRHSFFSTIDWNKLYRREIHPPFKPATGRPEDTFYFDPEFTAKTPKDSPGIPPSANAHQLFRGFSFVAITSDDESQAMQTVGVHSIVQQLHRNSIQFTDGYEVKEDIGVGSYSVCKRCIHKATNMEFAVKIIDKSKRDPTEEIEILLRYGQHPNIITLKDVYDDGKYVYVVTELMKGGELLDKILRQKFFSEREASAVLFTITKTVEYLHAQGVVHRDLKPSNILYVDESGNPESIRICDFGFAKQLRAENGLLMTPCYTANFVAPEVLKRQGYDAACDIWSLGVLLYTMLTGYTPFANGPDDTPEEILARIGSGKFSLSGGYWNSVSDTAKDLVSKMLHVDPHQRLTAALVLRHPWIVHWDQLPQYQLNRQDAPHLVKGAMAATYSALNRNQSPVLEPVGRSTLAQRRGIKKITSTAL
Sequence of Serine palmitoyltransferase 1 (Homo sapiens) (O15269 whole entry): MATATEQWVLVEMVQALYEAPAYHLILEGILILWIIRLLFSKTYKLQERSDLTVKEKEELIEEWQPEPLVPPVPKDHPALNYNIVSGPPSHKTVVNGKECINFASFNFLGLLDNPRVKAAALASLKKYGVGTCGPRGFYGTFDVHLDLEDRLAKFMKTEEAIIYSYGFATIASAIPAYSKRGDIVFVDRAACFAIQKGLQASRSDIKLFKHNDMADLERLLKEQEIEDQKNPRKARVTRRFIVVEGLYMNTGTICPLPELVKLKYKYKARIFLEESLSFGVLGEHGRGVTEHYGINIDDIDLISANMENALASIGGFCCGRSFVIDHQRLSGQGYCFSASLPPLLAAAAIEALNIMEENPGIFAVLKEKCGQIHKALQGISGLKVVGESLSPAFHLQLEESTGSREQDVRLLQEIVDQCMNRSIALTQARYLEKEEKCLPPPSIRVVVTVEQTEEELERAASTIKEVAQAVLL
Sequence of Calcium/calmodulin-dependent protein kinase type II subunit delta (Homo sapiens) (Q13557 whole entry): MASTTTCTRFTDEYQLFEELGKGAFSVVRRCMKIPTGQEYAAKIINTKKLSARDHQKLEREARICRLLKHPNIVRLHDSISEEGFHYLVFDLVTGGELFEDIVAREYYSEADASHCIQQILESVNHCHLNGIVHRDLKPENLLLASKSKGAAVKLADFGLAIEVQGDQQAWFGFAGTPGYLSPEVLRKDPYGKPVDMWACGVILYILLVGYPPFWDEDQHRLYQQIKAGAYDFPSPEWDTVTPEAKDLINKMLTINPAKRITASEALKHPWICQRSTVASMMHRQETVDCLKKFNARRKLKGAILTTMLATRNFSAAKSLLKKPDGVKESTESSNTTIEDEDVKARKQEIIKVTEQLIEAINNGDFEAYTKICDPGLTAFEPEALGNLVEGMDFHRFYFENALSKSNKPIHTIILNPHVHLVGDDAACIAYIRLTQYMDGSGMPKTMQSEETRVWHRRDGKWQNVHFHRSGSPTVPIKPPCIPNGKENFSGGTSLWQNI
Sequence of Interleukin-1 receptor-associated kinase 4 (Homo sapiens) (Q9NWZ3 whole entry): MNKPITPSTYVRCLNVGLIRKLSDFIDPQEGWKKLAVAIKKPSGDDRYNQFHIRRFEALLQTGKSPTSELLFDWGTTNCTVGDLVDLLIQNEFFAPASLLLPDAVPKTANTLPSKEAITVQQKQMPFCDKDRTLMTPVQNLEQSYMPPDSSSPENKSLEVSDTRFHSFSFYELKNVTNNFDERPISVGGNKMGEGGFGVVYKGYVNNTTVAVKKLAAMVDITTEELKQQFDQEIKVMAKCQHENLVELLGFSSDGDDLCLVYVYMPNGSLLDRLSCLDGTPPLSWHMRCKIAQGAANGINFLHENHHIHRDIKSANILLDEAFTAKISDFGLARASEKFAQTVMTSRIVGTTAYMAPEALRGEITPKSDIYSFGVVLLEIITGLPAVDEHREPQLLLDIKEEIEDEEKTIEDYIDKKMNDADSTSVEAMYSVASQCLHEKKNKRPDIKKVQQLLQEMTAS
Sequence of Structural maintenance of chromosomes protein 4 (Homo sapiens) (Q9NTJ3 whole entry): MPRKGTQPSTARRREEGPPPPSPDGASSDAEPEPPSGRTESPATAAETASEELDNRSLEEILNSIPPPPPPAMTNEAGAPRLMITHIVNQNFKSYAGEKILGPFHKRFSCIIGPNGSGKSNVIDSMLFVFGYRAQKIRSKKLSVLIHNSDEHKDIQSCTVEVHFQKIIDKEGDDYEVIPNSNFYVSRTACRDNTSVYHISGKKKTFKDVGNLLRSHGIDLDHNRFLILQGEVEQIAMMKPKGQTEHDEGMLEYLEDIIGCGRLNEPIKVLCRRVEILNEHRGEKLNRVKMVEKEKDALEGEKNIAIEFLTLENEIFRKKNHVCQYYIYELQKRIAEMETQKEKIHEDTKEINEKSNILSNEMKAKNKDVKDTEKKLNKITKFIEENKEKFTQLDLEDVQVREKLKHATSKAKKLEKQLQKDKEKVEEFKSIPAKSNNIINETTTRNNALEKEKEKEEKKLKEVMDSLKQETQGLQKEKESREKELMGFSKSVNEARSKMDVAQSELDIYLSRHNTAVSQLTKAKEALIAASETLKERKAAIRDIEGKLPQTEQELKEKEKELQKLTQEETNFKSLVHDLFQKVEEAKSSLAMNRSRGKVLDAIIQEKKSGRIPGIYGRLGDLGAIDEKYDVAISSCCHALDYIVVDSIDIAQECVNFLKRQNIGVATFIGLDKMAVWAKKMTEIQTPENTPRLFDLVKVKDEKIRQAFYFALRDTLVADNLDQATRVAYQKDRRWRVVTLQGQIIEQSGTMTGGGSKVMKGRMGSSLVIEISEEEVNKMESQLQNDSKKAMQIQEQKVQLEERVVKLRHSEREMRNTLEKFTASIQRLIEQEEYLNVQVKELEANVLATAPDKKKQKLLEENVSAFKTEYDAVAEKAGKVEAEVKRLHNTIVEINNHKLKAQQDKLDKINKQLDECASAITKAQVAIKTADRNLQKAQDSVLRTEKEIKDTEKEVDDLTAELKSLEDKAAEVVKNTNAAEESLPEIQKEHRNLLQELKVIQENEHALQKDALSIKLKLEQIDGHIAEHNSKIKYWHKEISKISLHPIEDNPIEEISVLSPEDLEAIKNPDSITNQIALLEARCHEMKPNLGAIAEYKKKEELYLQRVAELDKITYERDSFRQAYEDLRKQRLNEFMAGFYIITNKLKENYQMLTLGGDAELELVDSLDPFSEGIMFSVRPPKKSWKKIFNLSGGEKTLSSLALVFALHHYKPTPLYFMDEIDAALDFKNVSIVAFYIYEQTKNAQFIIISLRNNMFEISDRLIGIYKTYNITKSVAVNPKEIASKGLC
Sequence of Conserved oligomeric Golgi complex subunit 4 (Homo sapiens) (Q9H9E3 whole entry, one chain of several): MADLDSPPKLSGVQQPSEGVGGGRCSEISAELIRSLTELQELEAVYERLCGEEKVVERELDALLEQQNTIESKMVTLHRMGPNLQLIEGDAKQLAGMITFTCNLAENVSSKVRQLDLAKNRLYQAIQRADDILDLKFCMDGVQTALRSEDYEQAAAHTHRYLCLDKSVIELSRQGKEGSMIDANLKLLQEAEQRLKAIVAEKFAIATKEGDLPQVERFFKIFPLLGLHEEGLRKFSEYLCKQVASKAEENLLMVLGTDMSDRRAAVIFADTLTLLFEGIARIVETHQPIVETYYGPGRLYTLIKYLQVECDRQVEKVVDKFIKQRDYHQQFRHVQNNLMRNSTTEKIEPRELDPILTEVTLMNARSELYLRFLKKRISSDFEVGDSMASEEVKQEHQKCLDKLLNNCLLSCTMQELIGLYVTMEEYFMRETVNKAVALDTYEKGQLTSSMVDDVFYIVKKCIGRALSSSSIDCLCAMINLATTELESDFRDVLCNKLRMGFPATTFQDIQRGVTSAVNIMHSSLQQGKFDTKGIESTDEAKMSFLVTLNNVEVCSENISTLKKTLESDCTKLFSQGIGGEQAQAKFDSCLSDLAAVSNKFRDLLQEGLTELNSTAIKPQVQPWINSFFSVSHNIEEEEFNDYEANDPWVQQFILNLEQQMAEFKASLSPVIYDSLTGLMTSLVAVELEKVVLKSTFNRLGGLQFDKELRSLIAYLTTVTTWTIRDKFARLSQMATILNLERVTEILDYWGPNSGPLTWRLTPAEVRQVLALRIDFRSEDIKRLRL
Sequence of 5'-AMP-activated protein kinase subunit gamma-1 (Homo sapiens) (P54619 whole entry): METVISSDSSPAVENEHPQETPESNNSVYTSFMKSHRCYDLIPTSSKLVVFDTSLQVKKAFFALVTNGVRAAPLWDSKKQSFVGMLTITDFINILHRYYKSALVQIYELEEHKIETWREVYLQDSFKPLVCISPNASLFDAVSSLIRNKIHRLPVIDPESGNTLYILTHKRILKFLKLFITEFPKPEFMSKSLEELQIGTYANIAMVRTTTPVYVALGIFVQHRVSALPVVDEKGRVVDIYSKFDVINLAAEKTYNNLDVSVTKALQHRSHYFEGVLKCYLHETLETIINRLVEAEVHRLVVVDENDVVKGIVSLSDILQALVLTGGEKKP
Sequence of GPI-anchor transamidase (Homo sapiens) (Q92643 whole entry): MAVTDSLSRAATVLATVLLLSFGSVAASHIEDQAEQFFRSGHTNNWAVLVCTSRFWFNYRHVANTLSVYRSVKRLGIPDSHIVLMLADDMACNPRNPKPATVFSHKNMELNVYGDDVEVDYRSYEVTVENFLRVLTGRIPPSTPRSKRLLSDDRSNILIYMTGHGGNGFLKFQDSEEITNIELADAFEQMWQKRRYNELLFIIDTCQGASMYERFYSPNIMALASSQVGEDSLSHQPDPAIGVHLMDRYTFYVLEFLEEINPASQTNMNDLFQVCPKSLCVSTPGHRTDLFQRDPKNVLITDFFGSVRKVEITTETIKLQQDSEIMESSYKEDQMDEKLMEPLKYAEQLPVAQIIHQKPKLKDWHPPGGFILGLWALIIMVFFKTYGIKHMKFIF

Structure (SMILES): Cc1ccc(C(=O)Nc2cccc(C(F)(F)F)c2)cc1Nc1nc(-c2cccnc2)nc2c1cnn2C
- ED50 [1]: 4.18 µM
- ED50 [2]: 13.1 µM
- ED50 [3]: 0.829 µM
- ED50 [4]: 0.11 µM
- ED50 [5]: 2.59 µM
- ED50 [6]: 10.9 µM
- ED50 [7]: 0.149 µM
- ED50 [8]: 401 µM
- ED50 [9]: 0.00682 µM
- ED50 [10]: 11.7 µM
- ED50 [11]: 4.61 µM
- ED50 [12]: 0.613 µM
- Kd [13]: 0.91 µM
- ED50 [14]: 0.171 µM
- ED50 [15]: 7.32 µM
- ED50 [16]: 0.00796 µM
- ED50 [17]: 0.364 µM
- ED50 [18]: 3.65 µM
- ED50 [19]: 0.00531 µM
- ED50 [20]: 32.9 µM
- ED50 [21]: 1.7 µM
- ED50 [22]: 0.00514 µM
- ED50 [23]: 0.105 µM
- ED50 [24]: 0.12 µM
- ED50 [25]: 7.4 µM
- ED50 [26]: 3.36 µM
- ED50 [27]: 0.765 µM
- ED50 [28]: 70.3 µM
- ED50 [29]: 0.874 µM
- ED50 [30]: 0.00382 µM
- ED50 [31]: 9.67 µM
- ED50 (Homo sapiens): 33.9 µM
- ED50 [32]: 3.31 µM
- ED50 [33]: 0.000531 µM
- ED50 [34]: 10.4 µM
- ED50 [35]: 14.2 µM
- ED50 [36]: 3.12 µM
- ED50 [37]: 4.7 µM
- ED50 [38]: 0.00528 µM
- ED50 [39]: 3.43 µM
- ED50 [40]: 0.00259 µM
- ED50 [41]: 3.14 µM
- ED50 [42]: 8.44 µM
- ED50 [43]: 0.466 µM
- ED50 [44]: 11.6 µM

Structure (SMILES): Cc1ccc(C(=O)Nc2cccc(C(F)(F)F)c2)cc1Nc1nc(-c2cccnc2)nc2nn(C)cc12
- ED50 [1]: 4.91 µM
- ED50 [2]: 2.15 µM
- ED50 [3]: 34.9 µM
- ED50 [4]: 0.0386 µM
- ED50 [5]: 14.9 µM
- ED50 [6]: 0.875 µM
- ED50 [7]: 3.88 µM
- ED50 [8]: 0.0528 µM
- ED50 [9]: 0.553 µM
- ED50 [10]: 7.5 µM
- ED50 [11]: 0.0222 µM
- ED50 [12]: 0.107 µM
- Kd [13]: 0.732 µM
- ED50 [14]: 0.254 µM
- ED50 [15]: 7.29 µM
- ED50 [16]: 0.0202 µM
- ED50 [17]: 6.14 µM
- ED50 [18]: 0.00679 µM
- ED50 [19]: 3.55 µM
- ED50 [20]: 1.72 µM
- ED50 [21]: 0.0621 µM
- ED50 [22]: 16.7 µM
- ED50 [23]: 0.0137 µM
- ED50 [24]: 2.36 µM
- ED50 [25]: 0.169 µM
- ED50 [26]: 10.7 µM
- ED50 [27]: 0.959 µM
- ED50 [28]: 4.45 µM
- ED50 [29]: 0.0603 µM
- ED50 [30]: 0.191 µM
- ED50 [31]: 0.0232 µM
- ED50 (Homo sapiens): 0.0569 µM
- ED50 [32]: 110 µM
- ED50 [33]: 0.137 µM
- ED50 [34]: 0.00142 µM
- ED50 [35]: 9.32 µM
- ED50 [36]: 0.0292 µM
- ED50 [37]: 0.0354 µM
- ED50 [38]: 7.92 µM
- ED50 [39]: 0.0839 µM
- ED50 [40]: 2.63 µM
- ED50 [41]: 14.9 µM
- ED50 [42]: 1.31 µM
- ED50 [43]: 647 µM
- ED50 [44]: 0.443 µM
